Patent US12064471B2, “Compositions comprising sulforaphane or a sulforaphane precursor and a mushroom extract or powder” (NUTRAMAX LABORATORIES, INC., priority 2012, dated 2024)

Legend:
myrosinase [1] = assay: Conversion of glucoraphanin to sulforaphane by myrosinase, HPLC (Example 4); type: biochemical; settings: Part 2, 250 mg broccoli seed extract
Protocol: A two-part experiment was conducted to further elucidate the role of ascorbic acid in modulating myrosinase activity. […] A control sample contained no ascorbic acid, and the enzymatic conversion proceeded unassisted by a co-factor. PART 1. […] PART 2. While keeping the amount of broccoli seed extract fixed at 250 mg, the concentration of ascorbic acid was varied from 0.4 mmol/Liter to 3.8 mmol/Liter.

myrosinase [2] = assay: Conversion of glucoraphanin to sulforaphane in Simulated Intestinal Fluid (Example 5); type: biochemical, broccoli; settings: 0.25 to 1.00 mmol/Liter ascorbic acid, 38° C., 2 hours
Protocol: Simulated Intestinal Fluid (SIF) powder, a commercially supplied concentrate closely approximating the human intestinal content in terms of composition, pH and ionic strength, was used. The experiment utilized a USP Dissolution Apparatus 2 (paddles), where into six dissolution vessels 500 mL of Simulated Intestinal Fluid was dispensed, along with 150 mg of freeze-dried broccoli sprout powder as a source of myrosinase. […] Aliquots were withdrawn every 15 minutes and assayed for sulforaphane.

Ascorbic acid concentration up to which myrosinase-promoted conversion increases apparently linearly, followed by leveling off (myrosinase [1]): about 2 mmol/L
Structure (SMILES): O=C1O[C@H]([C@@H](O)CO)C(O)=C1O [Ascorbic Acid, Ascorbic acid]
Sulforaphane yield versus ascorbic acid concentration (myrosinase [2]): direct correlation between larger yield of sulforaphane and higher concentrations of ascorbic acid
